Measured values taken from patent publication US20260160663A1, “OBLIQUE LINE SCANNER SYSTEMS AND METHODS FOR HIGH THROUGHPUT SINGLE MOLECULE TRACKING IN LIVING CELLS” (EIKON THERAPEUTICS, INC., priority 2022, published 2026).

Test system: Halo-PCNA U2OS cells
Assay: Cell cycle block, phases assigned by PCNA-based machine learning model
Settings: 2 mM Thymidine (S-phase block) or RO-3306 (G2-M block) per FIG. 20B legend
Method: Time-lapse microscopy was conducted on Halo-PCNA labeled with 50 nM JFX650, to achieve near-saturating labeling, for 12 hours at 12 frames per hour (FIG. 21A). A machine learning model was then trained using both manually assigned cell stages and time-based progression resulting in both a G1, early S, mid S, late S, G2 and mitosis classifier as well as a regression prediction across the continuum of the cell cycle (FIG. 21B). The predicted cell cycle classification performed well as compared to manual annotation (FIG. 21C). Clear progression of individual cells through the cell cycle was observed when regression prediction was plotted across the time series (FIG. 21D). […] When cells in each cell phase were analyzed separately, it became apparent that the slow-moving population of PCNA was exclusively found in cell predicted to be in S-phase and that there was a marked decrease in the fast-moving population (FIG. 20E). Mean diffusion coefficient of PCNA was then measured for 4,081 individual cells to characterize heterogeneity across the cell population, which is described in large part by cell cycle (FIG. 20F).
Cell cycle as provided above can be automatically determined using an image (e.g., an image of JF549-labeled PCNA). […]

Row | Structure (SMILES) | fraction of cells assigned to the respective cell phase
1 | O=C1NC(=NCc2cccs2)S/C1=C\c1ccc2ncccc2c1 [RO-3306] | expected enrichment
2 | Cc1cn([C@H]2C[C@H](O)[C@@H](CO)O2)c(=O)[nH]c1=O [thymidine] | expected enrichment
